The text below walks through data of BindingDB's records for doi:10.1021/cc050016r (Uppsala University, 2005).

Values joined by “and” are separate entries in the source; they are usually repeats but may differ in a detail not shown here. Equal values may be shown once.

A word on the Ki: it is a measure of affinity in units of concentration, obtained from inhibition or displacement. The low end stands for a stronger hold on the target, the high end for a looser hold on the target.

In this assay the target is HIV-1 protease (Human immunodeficiency virus, UniProt Q9YQ34). The assay is described as follows: Fluorometric Assay. An excerpt: Fluorometric assay using HIV-1 protease.
Chain of HIV-1 protease (Q9YQ34 whole entry): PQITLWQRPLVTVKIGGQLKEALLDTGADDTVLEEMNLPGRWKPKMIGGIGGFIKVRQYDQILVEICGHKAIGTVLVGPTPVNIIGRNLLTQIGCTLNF
Consider `CNC(=O)c1ccccc1CO[C@@H](C(=O)N[C@H](C(=O)NC)C(C)C)[C@H](O)[C@@H](O)[C@@H](OCc1ccccc1C(=O)NC)C(=O)N[C@H](C(=O)NC)C(C)C` [HIV-1 Protease Inhibitor, 6a], for which the inhibition constant Ki was above 5 µM.

`CNC(=O)[C@@H](NC(=O)[C@H](OCc1ccccc1C(=O)NC(C)(C)C)[C@H](O)[C@@H](O)[C@@H](OCc1ccccc1C(=O)NC(C)(C)C)C(=O)N[C@H](C(=O)NC)C(C)C)C(C)C` [HIV-1 Protease Inhibitor, 6b]: the Ki was 0.7 µM.

The molecule `CCCCNC(=O)c1ccccc1CO[C@@H](C(=O)N[C@H](C(=O)NC)C(C)C)[C@H](O)[C@@H](O)[C@@H](OCc1ccccc1C(=O)NCCCC)C(=O)N[C@H](C(=O)NC)C(C)C` [HIV-1 Protease Inhibitor, 6c] registered a Ki of 0.6 µM.

Molecule `CNC(=O)[C@@H](NC(=O)[C@H](OCc1ccccc1C(=O)N1CCCC1)[C@H](O)[C@@H](O)[C@@H](OCc1ccccc1C(=O)N1CCCC1)C(=O)N[C@H](C(=O)NC)C(C)C)C(C)C` [HIV-1 Protease Inhibitor, 6d] registered an inhibition constant (Ki) of 0.4 µM.

In the case of `CNC(=O)[C@@H](NC(=O)[C@H](OCc1ccccc1C(=O)N1CCOCC1)[C@H](O)[C@@H](O)[C@@H](OCc1ccccc1C(=O)N1CCOCC1)C(=O)N[C@H](C(=O)NC)C(C)C)C(C)C` [HIV-1 Protease Inhibitor, 6e], the Ki was above 5 µM.

As to `CNC(=O)[C@@H](NC(=O)[C@H](OCc1ccccc1C(=O)NC1CCCCC1)[C@H](O)[C@@H](O)[C@@H](OCc1ccccc1C(=O)NC1CCCCC1)C(=O)N[C@H](C(=O)NC)C(C)C)C(C)C` [HIV-1 Protease Inhibitor, 6f], the Ki was 0.2 µM and 0.196 µM.

In turn, `CNC(=O)[C@@H](NC(=O)[C@H](OCc1ccccc1C(=O)Nc1nccs1)[C@H](O)[C@@H](O)[C@@H](OCc1ccccc1C(=O)Nc1nccs1)C(=O)N[C@H](C(=O)NC)C(C)C)C(C)C` [HIV-1 Protease Inhibitor, 6g] came in with an inhibition constant Ki of 0.7 µM.

With `CNC(=O)[C@@H](NC(=O)[C@H](OCc1ccccc1C(=O)Nc1ccccc1)[C@H](O)[C@@H](O)[C@@H](OCc1ccccc1C(=O)Nc1ccccc1)C(=O)N[C@H](C(=O)NC)C(C)C)C(C)C` [HIV-1 Protease Inhibitor, 6h], the Ki is 0.007 µM and 0.02 µM.

Consider `CNC(=O)[C@@H](NC(=O)[C@H](OCc1ccccc1C(=O)Nc1cccnc1)[C@H](O)[C@@H](O)[C@@H](OCc1ccccc1C(=O)Nc1cccnc1)C(=O)N[C@H](C(=O)NC)C(C)C)C(C)C` [HIV-1 Protease Inhibitor, 6i], for which the Ki is 0.07 µM and 0.118 µM.

With `CNC(=O)[C@@H](NC(=O)[C@H](OCc1ccccc1C(=O)N1CCc2ccccc21)[C@H](O)[C@@H](O)[C@@H](OCc1ccccc1C(=O)N1CCc2ccccc21)C(=O)N[C@H](C(=O)NC)C(C)C)C(C)C` [HIV-1 Protease Inhibitor, 6j], the affinity, expressed as Ki, was 0.8 µM.

`CCOC(=O)c1ccc(NC(=O)c2ccccc2CO[C@@H](C(=O)N[C@H](C(=O)NC)C(C)C)[C@H](O)[C@@H](O)[C@@H](OCc2ccccc2C(=O)Nc2ccc(C(=O)OCC)cc2)C(=O)N[C@H](C(=O)NC)C(C)C)cc1` [HIV-1 Protease Inhibitor, 6k] had an inhibition constant (Ki) of 0.2 µM.

For the molecule `CNC(=O)[C@@H](NC(=O)[C@H](OCc1ccccc1C(=O)Nc1cccc(Cl)c1)[C@H](O)[C@@H](O)[C@@H](OCc1ccccc1C(=O)Nc1cccc(Cl)c1)C(=O)N[C@H](C(=O)NC)C(C)C)C(C)C` [HIV-1 Protease Inhibitor, 6l], the inhibition constant Ki was 0.006 µM and 0.0085 µM.

Turning to `CNC(=O)[C@@H](NC(=O)[C@H](OCc1ccccc1C(=O)NCc1ccccc1)[C@H](O)[C@@H](O)[C@@H](OCc1ccccc1C(=O)NCc1ccccc1)C(=O)N[C@H](C(=O)NC)C(C)C)C(C)C` [HIV-1 Protease Inhibitor, 6m], the inhibition constant Ki is 2 µM and 1.33 µM.

`CNC(=O)[C@@H](NC(=O)[C@H](OCc1ccccc1C(=O)Nc1cccc2cnccc12)[C@H](O)[C@@H](O)[C@@H](OCc1ccccc1C(=O)Nc1cccc2cnccc12)C(=O)N[C@H](C(=O)NC)C(C)C)C(C)C` [HIV-1 Protease Inhibitor, 6n]: the inhibitory constant (Ki) was determined as 0.8 µM.

`CNC(=O)c1cccc(CO[C@@H](C(=O)N[C@H](C(=O)NC)C(C)C)[C@H](O)[C@@H](O)[C@@H](OCc2cccc(C(=O)NC)c2)C(=O)N[C@H](C(=O)NC)C(C)C)c1` [HIV-1 Protease Inhibitor, 7a] had an inhibition constant Ki of 0.02 µM.

Turning to `CCCCNC(=O)c1cccc(CO[C@@H](C(=O)N[C@H](C(=O)NC)C(C)C)[C@H](O)[C@@H](O)[C@@H](OCc2cccc(C(=O)NCCCC)c2)C(=O)N[C@H](C(=O)NC)C(C)C)c1` [HIV-1 Protease Inhibitor, 7b], the inhibitory constant (Ki) is 0.003 µM and 0.0065 µM.

Regarding `CNC(=O)[C@@H](NC(=O)[C@H](OCc1cccc(C(=O)N2CCCC2)c1)[C@H](O)[C@@H](O)[C@@H](OCc1cccc(C(=O)N2CCCC2)c1)C(=O)N[C@H](C(=O)NC)C(C)C)C(C)C` [HIV-1 Protease Inhibitor, 7c], the inhibition constant (Ki) amounted to 0.2 µM.

For the molecule `CNC(=O)[C@@H](NC(=O)[C@H](OCc1cccc(C(=O)N2CCOCC2)c1)[C@H](O)[C@@H](O)[C@@H](OCc1cccc(C(=O)N2CCOCC2)c1)C(=O)N[C@H](C(=O)NC)C(C)C)C(C)C` [HIV-1 Protease Inhibitor, 7d], affinity was put at a Ki of 0.3 µM.

`CNC(=O)[C@@H](NC(=O)[C@H](OCc1cccc(C(=O)NC2CCCCC2)c1)[C@H](O)[C@@H](O)[C@@H](OCc1cccc(C(=O)NC2CCCCC2)c1)C(=O)N[C@H](C(=O)NC)C(C)C)C(C)C` [HIV-1 Protease Inhibitor, 7e] registered a Ki of 0.02 µM.

With `CNC(=O)[C@@H](NC(=O)[C@H](OCc1cccc(C(=O)Nc2ccccc2)c1)[C@H](O)[C@@H](O)[C@@H](OCc1cccc(C(=O)Nc2ccccc2)c1)C(=O)N[C@H](C(=O)NC)C(C)C)C(C)C` [HIV-1 Protease Inhibitor, 7f], the Ki was 0.007 µM.

Regarding `CNC(=O)[C@@H](NC(=O)[C@H](OCc1cccc(C(=O)NCc2ccccc2)c1)[C@H](O)[C@@H](O)[C@@H](OCc1cccc(C(=O)NCc2ccccc2)c1)C(=O)N[C@H](C(=O)NC)C(C)C)C(C)C` [HIV-1 Protease Inhibitor, 7g], the inhibitory constant (Ki) is 0.002 µM and 0.0029 µM.
